Assay type in all cases: biochemical
One test deals with T1, CDK2/CycA (Homo sapiens, UniProt P24941).
T1 construct: purchased Proqinase
As to the kind of experiment: CDK2 Enzymatic Activity Assay (Lance Kinase Activity Assay, FRET). Particulars: Table 5B; symbols per IC50 ranges of b615. The gist of the method:
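Compounds serially diluted 1:3 over 8 steps, run with CDK2/CycA, ULight-MBP substrate and ATP in HEPES pH 7.5 buffer for 1 h at room temperature. LANCE TR-FRET detection with Eu-anti-phospho-MBP after EDTA stop; IC50 from sigmoidal dose-response curves.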

A further test concerns the target T2, CDK9/Cyclin T1 (Homo sapiens, UniProt P50750).
T2 construct: purchased Invitrogen
Briefly: CDK9 Enzymatic Activity Assay (Lance Kinase Activity Assay, FRET). Particulars: Table 5B; symbols per IC50 ranges of b615. The gist of the method:
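TR-FRET detection of ULight-MBP substrate phosphorylation by CDK9/cyclin T1 using a Eu-anti-phospho-MBP antibody, in 50 mM HEPES pH 7.5, 10 mM MgCl2, 1 mM EGTA, 2 mM DTT, 0.01% Tween-20. Kinase reaction 1 h at room temperature, then EDTA detection buffer for 1 h before reading.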

A further test concerns the target T3, CDK7/CycH/Mat1 (Homo sapiens, UniProt P50613).
T3 construct: purchased Carna
As to the kind of experiment: CDK7 Enzymatic Activity Assay (Lance Kinase Activity Assay, FRET). Particulars: Table 5A; 25 μM ATP final; read-out: CDK7: IC50 [mM] for CDK7 inhibition (the above defined ranges apply). The gist of the method:
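TR-FRET (LANCE) kinase assay with ULight-MBP peptide substrate and Eu-labelled anti-phospho antibody; compounds in 8-point 1:3 series in HEPES 50 mM pH 7.5, MgCl2 10 mM, EGTA 1 mM, DTT 2 mM, 0.01% Tween-20.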

A value given as a limit tells only on which side of the number the result lay.

T3 sequence (P50613 whole entry): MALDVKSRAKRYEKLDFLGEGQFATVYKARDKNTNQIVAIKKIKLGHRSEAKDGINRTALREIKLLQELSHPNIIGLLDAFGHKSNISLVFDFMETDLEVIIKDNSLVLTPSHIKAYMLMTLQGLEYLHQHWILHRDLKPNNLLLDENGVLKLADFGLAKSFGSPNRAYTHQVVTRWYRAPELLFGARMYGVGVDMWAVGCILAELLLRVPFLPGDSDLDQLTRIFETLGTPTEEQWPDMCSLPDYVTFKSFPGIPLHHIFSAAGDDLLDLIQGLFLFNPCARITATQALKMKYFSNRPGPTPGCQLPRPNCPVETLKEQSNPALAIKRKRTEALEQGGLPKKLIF
T3 sequence (P51946 whole entry partner): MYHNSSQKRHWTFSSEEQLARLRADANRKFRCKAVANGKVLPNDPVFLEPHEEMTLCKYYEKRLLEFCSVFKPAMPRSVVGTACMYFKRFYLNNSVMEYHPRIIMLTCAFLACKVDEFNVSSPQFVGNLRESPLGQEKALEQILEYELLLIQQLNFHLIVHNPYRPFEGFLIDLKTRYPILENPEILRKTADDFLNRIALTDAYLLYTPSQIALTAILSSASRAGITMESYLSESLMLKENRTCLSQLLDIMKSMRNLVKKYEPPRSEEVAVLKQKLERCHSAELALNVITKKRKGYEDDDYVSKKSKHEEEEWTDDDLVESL
T3 sequence (P51948 whole entry partner): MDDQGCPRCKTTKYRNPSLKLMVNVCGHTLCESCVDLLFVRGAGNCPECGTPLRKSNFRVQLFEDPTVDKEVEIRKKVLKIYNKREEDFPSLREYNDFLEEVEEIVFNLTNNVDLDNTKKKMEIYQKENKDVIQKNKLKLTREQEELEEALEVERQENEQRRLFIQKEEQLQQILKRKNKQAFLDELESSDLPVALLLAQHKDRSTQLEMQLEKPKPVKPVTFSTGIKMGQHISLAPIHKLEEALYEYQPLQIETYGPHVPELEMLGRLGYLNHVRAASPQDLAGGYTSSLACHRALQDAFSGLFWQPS
T2 sequence (P50750 whole entry): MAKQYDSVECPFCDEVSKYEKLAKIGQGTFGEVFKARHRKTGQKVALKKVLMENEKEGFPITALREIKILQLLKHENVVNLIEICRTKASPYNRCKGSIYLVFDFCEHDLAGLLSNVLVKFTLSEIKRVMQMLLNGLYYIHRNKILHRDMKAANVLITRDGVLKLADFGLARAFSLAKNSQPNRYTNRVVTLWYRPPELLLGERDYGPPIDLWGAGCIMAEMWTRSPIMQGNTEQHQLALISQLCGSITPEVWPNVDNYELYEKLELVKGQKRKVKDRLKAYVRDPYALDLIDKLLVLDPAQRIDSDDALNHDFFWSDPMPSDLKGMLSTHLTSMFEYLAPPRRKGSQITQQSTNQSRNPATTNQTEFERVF
T2 sequence (O60563 whole entry partner): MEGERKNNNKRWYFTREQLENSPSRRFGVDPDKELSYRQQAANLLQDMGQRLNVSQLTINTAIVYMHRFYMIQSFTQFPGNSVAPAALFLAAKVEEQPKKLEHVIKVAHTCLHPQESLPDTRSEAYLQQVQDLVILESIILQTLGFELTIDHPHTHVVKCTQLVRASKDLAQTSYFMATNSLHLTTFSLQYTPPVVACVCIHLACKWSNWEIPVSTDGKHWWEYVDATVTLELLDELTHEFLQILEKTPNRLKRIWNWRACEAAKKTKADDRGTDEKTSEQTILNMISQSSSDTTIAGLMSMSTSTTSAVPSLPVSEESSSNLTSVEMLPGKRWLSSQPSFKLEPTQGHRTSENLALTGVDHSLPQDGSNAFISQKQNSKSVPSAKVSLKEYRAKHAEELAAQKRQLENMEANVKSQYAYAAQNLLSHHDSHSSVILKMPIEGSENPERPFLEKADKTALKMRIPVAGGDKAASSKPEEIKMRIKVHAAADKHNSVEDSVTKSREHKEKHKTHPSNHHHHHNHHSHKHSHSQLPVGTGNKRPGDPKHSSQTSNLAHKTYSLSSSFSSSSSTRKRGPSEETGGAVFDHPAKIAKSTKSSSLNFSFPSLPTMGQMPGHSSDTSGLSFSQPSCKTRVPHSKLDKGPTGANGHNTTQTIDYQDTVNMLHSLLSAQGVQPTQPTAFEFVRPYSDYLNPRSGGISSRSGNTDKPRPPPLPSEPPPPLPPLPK

As for `COc1cccc([C@H](C)Nc2nc(C(=O)N3CCNCC3)nc3c(C(C)C)cnn23)c1` [(XXVI-4), (S)-(8-isopropyl-4-((1-(3-methoxyphenyl)ethyl)amino)pyrazolo[1,5-a][1,3,5]triazin-2-yl)(piperazin-1-yl)methanone], the “CDK2 IC50 range class” value at CDK2/CycA is “+++ (IC50>2500 nM)”. Moreover, at CDK9/Cyclin T1, the “CDK9: Selectivity of CDK7 inhibition over CDK9 inhibition [fold]” value was “+++ (IC50>2500 nM)”. The 50% inhibitory concentration (IC50) (as a rule, the concentration at which inhibition is half-maximal) on CDK7/CycH/Mat1 was above 0.0001 mM.

For `COc1cccc([C@H](C)Nc2nc(C(=O)NCCCN)nc3c(C(C)C)cnn23)c1` [(XXVI-5), (S)-N-(3-aminopropyl)-8-isopropyl-4-((1-(3-methoxyphenyl)ethyl)amino)pyrazolo[1,5-a][1,3,5]triazine-2-carboxamide], the “CDK2 IC50 range class” value at CDK2/CycA is “+++ (IC50>2500 nM)”. The “CDK9: Selectivity of CDK7 inhibition over CDK9 inhibition [fold]” value at CDK9/Cyclin T1 was “+++ (IC50>2500 nM)”. The 50% inhibitory concentration (IC50) on CDK7/CycH/Mat1 is above 0.0001 mM.

The values above are taken from US9096608B2, “Pharmaceutically active pyrazolo-triazine derivatives” (LEAD DISCOVERY CENTER GMBH, priority 2012, dated 2015).
